Measurements taken from patent US8530497B2, “Crystalline salts of a potent HCV inhibitor” (Boehringer Ingelheim International GmbH, priority 2010, dated 2013).

How the values were obtained:
[1] = Dynamic Vapor Sorption (DVS) moisture gain; type: physicochemical; details: through 85% RH at 25° C.; for hygroscopic properties (DVS): conditions used in the analysis
Experimental: 4. Dynamic Vapor Sorption Dynamic water sorption analyses were performed using Surface Measurement Systems DVS or DVS-HT, or VTI SGA-100 instruments. Sample sizes ranged from 4 mg to 13 mg. Three cycles of water sorption/desorption were run at 25° C. with change of relative humidity from 5-10% increments from 5% to 95%. The criteria for the step were weight change less than or equal to 0.002% or maximum time of 3 hours.

[2] = Intrinsic dissolution rate (Van Kel VK7000 dissolution tester, Wood's die); type: physicochemical; details: for Dissolution Rate: pH 6.8 (20 mM sodium phosphate), 37° C., 100 rpm
Experimental: 6. Dissolution Studies Intrinsic dissolution rates were evaluated using Van Kel VK7000 dissolution tester and 400 mL dissolution bath with a rotation rate of 100 rpm at 37° C. Samples were prepared using approximately 50 mg of API in a 6 mm diameter Wood's die with compression force of 3 kN and 15 seconds dwell time by Carver press. The test was performed in 400 mL of pH 6.8 (20 mM sodium phosphate). Samples were collected at 2, 5, 10, 15, 20, 25, and 30 minutes, and the collected samples were unfiltered or filtered using […] PDVF filter. The concentrations of the drug were determined by HPLC using isocratic Method with fluorescence detection.

moisture gain by Dynamic Vapor Sorption [1] [%]	hygroscopic properties (DVS) [1]	dissolution rate compared with the sodium salt ([2]; pH 6.8)	Dissolution Rate [2] [µg/min/mL]	dissolution rate relative to the sodium salt or HEA ([2]; pH 6.8) [fold]	Structure (SMILES)
< 2.5	non-hygroscopic	comparable to the sodium salt	1.1		C=C[C@@H]1C[C@]1(NC(=O)[C@@H]1C[C@@H](Oc2cc(-c3csc(NC(=O)C(C)C)n3)nc3c(Br)c(OC)ccc23)CN1C(=O)[C@@H](NC(=O)OC1CCCC1)C(C)(C)C)C(=O)O [HEA]
			1.3		C=C[C@@H]1C[C@]1(NC(=O)[C@@H]1C[C@@H](Oc2cc(-c3csc(NC(=O)C(C)C)n3)nc3c(Br)c(OC)ccc23)CN1C(=O)[C@@H](NC(=O)OC1CCCC1)C(C)(C)C)C(=O)O [NA]
< 4	non-hygroscopic or slightly hygroscopic		64.4	> 10	C=C[C@@H]1C[C@]1(NC(=O)[C@@H]1C[C@@H](Oc2cc(-c3csc(NC(=O)C(C)C)n3)nc3c(Br)c(OC)ccc23)CN1C(=O)[C@@H](NC(=O)OC1CCCC1)C(C)(C)C)C(=O)O [TH]
